Experimental data as given in patent US8273775B2, “Non-steroidal brassinosteroid mimetic” (priority 2006, dated 2012).
Peptide text beside a SMILES is read from it. * marks the point of attachment. Cbz = O=C(OCc1ccccc1)*

Key:
[1] = system: BR-biosynthetic, BR signaling and BR-induced genes; assay: Real time PCR of BR pathway genes; format: in vivo, Arabidopsis thaliana; conditions: 30 μM, 2 hours
Experimental: FIG. 7: Q-PCR analysis of genes involved in BR biosynthesis. WT Arabidopsis plants were treated with abrasin (indicated as I5) for 2 hours at a concentration of 30 μM and/or with CHX at a concentration of 30 μM and RNA was extracted from whole plants.
(§1) FIG. 8: A: Western Blot analysis of the BES1 protein in 35S:BES1:GFP plants treated with BL and abrasin (indicated as I5 throughout the figure) (A); MG132 with BL or abrasin (B); a time course with abrasin (C) and a concentration gradient with abrasin (D). B: Abrasin and BL induce similar transcriptional regulation of the BR pathway.
RNA was extracted with the RNeasy kit. Poly(dT) cDNA was prepared from […] of total RNA with Superscript III reverse transcriptase (Invitrogen) and quantified on an LightCycler 480 apparatus (Roche) with the SYBR Green I Master kit (Roche) according to the manufacturer's instructions. Target quantifications were performed with specific primer pairs designed with the Beacon Designer 4.0 (Premier Biosoft International). All PCRs were performed in triplicate.
The primers used to quantify gene expression levels were for BAS 1: 5′-[…]-3′ and 5′-[…]-3′; BR6Ox1: 5′-TGGCCAATCTTTGGCGAA-3′ and 5′-[…]-3′; BR6Ox2: 5′-[…]-3′ and 5′-[…]-3′; BRI1: 5′-[…]-3′ and 5′-[…]-3′; CPD: 5′-[…]-3′ and 5′-[…]-3′; DWF4: 5′-[…]-3′ and 5′-[…]-3′ ROT3: 5′-ATTGGCGCGTTCCTCAGAT-3′ and 5′-[…]-3′; BES1: 5′-[…]-3′ and 5′-[…]-3′; BIN2: 5′-[…]-3′ and 5′-[…]-3′; BSU 1: 5′-[…]-3′ and 5′-[…]-3′; BZR1: 5′-[…]-3′ and 5′-[…]-3′; CDKA1; 1: 5′-[…]-3′ and 5′-[…]-3′; EEF1α: 5′-[…]-3′ and 5′-[…]-3′; BKI1: 5′-GCTCCGGCGTCGATGA-3′ and 5′-[…]-3′.

[2] = system: BES1 protein in 35S:BES1:GFP plants; assay: Western blot analysis of BES1 phosphorylation state; format: in vivo, Arabidopsis thaliana
Experimental: as §1
For protein extraction, six-day-old seedlings were grown under standard conditions as described earlier on solid medium. Plants were next soaked in liquid MS-medium supplemented with the indicated compounds (concentrations and time periods as indicated in figures). Subsequently, plants were frozen in liquid nitrogen, ground and homogenized in ice-cold homogenization buffer (25 mM Tris-HCl (pH 8), 5 mM EDTA, 1 mM β-Mercapto-ethanol, 15 mM MgCl—2, 85 mM NaCl, 0.1% Tween 20, 1 protease inhibitor tablet/50 ml, Complete (Roche diagnostics, Belgium)). The homogenate was centrifuged twice (5 min, 14.000 rpm, 4° C.) in an Eppendorf Centrifuge 5417. Loading buffer was added, the samples were heated for 10 min at 95° C. and centrifuged. The samples were separated on a 12% acrylamide gel or a 4-20% gradient pre-cast gel (Bio-Rad) and blotted on nitrocellulose membranes (Hybond-C super, GE-Biosciences, UK) in 190 mM glycine and 25 mM Tris-Hcl using a mini-blotting system (Bio-Rad, USA) for 1 h. Membranes were blocked overnight at 4° C. in phosphate buffer with 0.1% Tween 20 and 5% skim milk (BD Difco, USA). For immunodetection, anti-BES1 antibodies at 1:2000 dilution and anti-GFP antibodies at 1:1000 dilution were used as primary antibody. As secondary antibody, anti-rat and anti-rabbit were used at 1:10.000 dilution. The proteins were detected by chemiluminescence (Perkin-Elmer, USA).

[3] = system: Arabidopsis thaliana seedlings; assay: Lateral root formation / root elongation of seedlings on agar plates; format: in vivo; conditions: structural variants of abrasin
Experimental: FIG. 3: (A) Phenotypic characterization. WT plants were grown under standard conditions on agar plates. […] Left panel: control plant. Middle panel: abrasin treated plant. Right panel: BL treated plant. (B) Dose response measurements of abrasin using lateral root formation as an indicator of brassinosteroid like activity. Error bars represent standard error of the mean. […] Osram) at 22° C. Three days after germination compounds were added to the 96-well plates at a final concentration of 50 μM. Plants were screened six days after germination for brassinosteroid-related phenotypes. For further phenotypical analysis, all plants were grown on vertically oriented square plates (Greiner Labortechnik, Austria) with solid medium derived from standard Murashige and Skoog medium under the same conditions. For the hypocotyl-elongation assay, plants were grown in the dark at 22° C. under the same conditions.

C[C@@H]1C[C@@H]([C@H](O)CC2CC(=O)NC(=O)C2)C(=O)[C@@H](C)C1 [CHX, cycloheximide, reference compound]
expression of genes downstream of the BRI1 receptor [1]: able to induce some of these genes

CC(C)C[C@@H](C=O)NC(=O)[C@H](CC(C)C)NC(=O)[C@H](CC(C)C)NC(=O)OCc1ccccc1 [MG132, Z-Leu-Leu-Leu-CHO, reference compound] (Cbz-Leu-Leu-Leu-aldehyde)
total amount of BES1 protein ([2]; MG132 treatment): an increase in the total amount of BES1
BES1 phosphorylation state ([2]; addition of BL or MG132): no shift in the ratio between the phosphorylated and the dephosphorylated form is observed

O=C(O)CCC(=O)Nc1ccc(F)cn1 [fluoro derivative, 4-[(5-fluoro-2-pyridinyl)amino]-4-oxobutanoic acid]
effect on lateral root formation as indication of brassinosteroid like activity [3]: highest activity
